Results on 21 compounds are retold here after patent publication US8669249B2, “Poly (ADP-ribose) polymerase (PARP) inhibitors” (Takeda Pharmaceutical Company Limited, priority 2009, dated 2014).

One experiment deals with T1, PARP (Homo sapiens, UniProt P09874).
T1 construct: purchased Trevigen 4684-096-K HT (kit); 4684-096-01 (PARP enzyme)
The experiment is described as follows: PARP ELISA (ELISA-based colorimetric PARP/Apoptosis Assay kit, Trevigen). As to conditions: pIC50=-log10 IC50, IC50 in mol/L; inhibition of PARP catalytic activity. The class given is biochemical. The procedure, abridged:
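Quenched after 10 min catalysis by aspiration and four PBS/0.1% Triton X-100 washes. Poly(ADP-ribose) detected with mouse anti-PAR monoclonal antibody, goat anti-mouse IgG-HRP and HRP substrate; colorimetric signal proportional to PARP catalytic activity.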
In general terms: An ELISA detects its analyte on a solid surface through an enzyme-linked reagent.

A further experiment relates to Jurkat cell line. The experiment is described as follows: PARP cellular chemopotentiation assay (MTS, with/without TMZ). The class given is cell-based. As to conditions: Chemopotentiation factor: ratio of EC50 values of Jurkat cells co-treated without and with 100 μM TMZ; 96 hours. Put shortly:
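Jurkat cells, 10,000/well, pre-cultured 24 h, then treated 96 h with serial compound dilutions (0.5% DMSO) with or without 100 μM TMZ. Viability by MTS conversion (OD490), normalized to DMSO controls; EC50 from curve fits, PF50 = EC50 without TMZ / EC50 with TMZ.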

In experiment [1] the target is T2, catalytic domain of Human PARP (Homo sapiens, UniProt P09874).
T2 construct: The catalytic domain of Human PARP was cloned and prepared; made in house
T2 sequence (P09874 788-1014 limits assumed): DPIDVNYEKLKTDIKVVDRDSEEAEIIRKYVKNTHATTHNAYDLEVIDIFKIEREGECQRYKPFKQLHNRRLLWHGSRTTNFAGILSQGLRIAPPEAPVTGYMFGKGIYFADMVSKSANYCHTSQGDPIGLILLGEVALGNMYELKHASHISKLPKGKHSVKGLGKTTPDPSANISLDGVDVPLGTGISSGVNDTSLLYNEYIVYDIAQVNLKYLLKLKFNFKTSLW
The experiment is described as follows: Biacore surface plasmon resonance affinity assay. The class given is binding. Particulars: pKD=-log10 KD, KD in mol/L; Biacore T100, 25° C.; read-out: pKD (converted). The procedure, abridged:
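Binding at 25° C on Biacore T100: 1 min compound association then 5 min dissociation (50 μL/min) over immobilized PARP catalytic domain, buffer HBS-P plus 1% DMSO, 0.5 mM TCEP, 5 mM MgCl2, 2-fold dilution series. KD derived as koff/kon from fitted association and dissociation phases.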
(In SPR one partner is held on a chip, and binding of the other changes the refractive index at the surface.)

Broadly, the IC50 is the concentration at which inhibition is half-maximal.

The structures appear in SMILES notation.

T1 sequence (P09874 whole entry): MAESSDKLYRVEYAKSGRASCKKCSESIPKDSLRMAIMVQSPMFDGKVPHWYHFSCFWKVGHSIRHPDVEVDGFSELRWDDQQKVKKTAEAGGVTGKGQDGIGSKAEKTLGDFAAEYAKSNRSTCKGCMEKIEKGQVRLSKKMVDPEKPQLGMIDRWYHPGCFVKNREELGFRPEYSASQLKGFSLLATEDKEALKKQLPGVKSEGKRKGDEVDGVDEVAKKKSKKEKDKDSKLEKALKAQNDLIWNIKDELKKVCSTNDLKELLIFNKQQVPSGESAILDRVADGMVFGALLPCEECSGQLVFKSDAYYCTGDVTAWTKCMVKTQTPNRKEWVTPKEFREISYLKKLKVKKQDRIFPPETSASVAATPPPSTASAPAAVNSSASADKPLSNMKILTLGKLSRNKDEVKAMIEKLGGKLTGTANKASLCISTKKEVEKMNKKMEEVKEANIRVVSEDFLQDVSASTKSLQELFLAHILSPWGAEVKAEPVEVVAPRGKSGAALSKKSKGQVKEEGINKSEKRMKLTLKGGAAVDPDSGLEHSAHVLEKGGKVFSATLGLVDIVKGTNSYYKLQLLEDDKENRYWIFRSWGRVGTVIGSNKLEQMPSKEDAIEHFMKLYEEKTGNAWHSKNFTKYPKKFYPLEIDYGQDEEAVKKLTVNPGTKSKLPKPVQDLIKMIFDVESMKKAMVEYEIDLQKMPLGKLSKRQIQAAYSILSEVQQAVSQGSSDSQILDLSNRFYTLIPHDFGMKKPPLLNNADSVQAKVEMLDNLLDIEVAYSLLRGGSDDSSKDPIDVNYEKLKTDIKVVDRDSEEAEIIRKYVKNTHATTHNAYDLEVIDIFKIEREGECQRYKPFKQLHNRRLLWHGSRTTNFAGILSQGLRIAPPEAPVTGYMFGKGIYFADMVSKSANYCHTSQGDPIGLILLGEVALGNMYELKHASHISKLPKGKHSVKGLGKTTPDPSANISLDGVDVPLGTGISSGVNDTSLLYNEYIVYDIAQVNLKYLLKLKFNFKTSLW

At PARP, `CC1Oc2ccc(CN3Cc4ccc(NC(=O)C5CC5)cc4C3)cc2NC1=O` (stereo not drawn) [Compound 243, N-(2-((2-Methyl-3-oxo-3,4-dihydro-2H-benzo[b][1,4]oxazin-6-yl)methyl)isoindolin-5-yl)cyclopropanecarboxamide] had an IC50 not below 126 nM. In addition, in the experiment on Jurkat cell line, the PF50 entry was “≦0.9”. In addition, in experiment [1], the Kd was 1260 to 10000 nM.

The compound `CNC(=O)c1ccc(N2CCN(Cc3ccc4c(c3)NC(=O)C(C)O4)CC2)nc1` (stereo not drawn) [Compound 235, N-Methyl-6-(4-((2-methyl-3-oxo-3,4-dihydro-2H-benzo[b][1,4]oxazin-6-yl)methyl)piperazin-1-yl)nicotinamide] gave an IC50 on PARP not above 31.6 nM. In addition, in the experiment with Jurkat cell line, the PF50 is 2.0-9.9. For the same compound, the Kd in experiment [1] was not above 10 nM.

`CC1Oc2c(F)cc(CN3CCN(c4ccc(C(=O)NC5CC5)cc4)CC3)cc2NC1=O` (stereo not drawn) [Compound 273, N-Cyclopropyl-4-(4-((8-fluoro-2-methyl-3-oxo-3,4-dihydro-2H-benzo[b][1,4]oxazin-6-yl)methyl)piperazin-1-yl)benzamide] gave an IC50 on PARP not above 31.6 nM. The PF50 entry with Jurkat cell line is listed as “≦0.9”. Besides, the Kd in experiment [1] is less than 31.6 nM.

`CCNC(=O)c1ccc(N2CCN(Cc3cc4c(c(OC)c3)OC(C)C(=O)N4)CC2)cc1` (stereo not drawn) [Compound 162, N-Ethyl-4-(4-((8-methoxy-2-methyl-3-oxo-3,4-dihydro-2H-benzo[b][1,4]oxazin-6-yl)methyl)piperazin-1-yl)benzamide] gave an IC50 at PARP not above 31.6 nM. Further, in the experiment with Jurkat cell line, the PF50 is 2.0-9.9. The Kd in experiment [1] is less than 31.6 nM.

In the case of `CNC(=O)c1ccc(N2CCN(Cc3ccc4c(c3)NC(=O)C(C)O4)CC2)cc1` (stereo not drawn) [Compound 223, N-Methyl-4-(4-((2-methyl-3-oxo-3,4-dihydro-2H-benzo[b][1,4]oxazin-6-yl)methyl)piperazin-1-yl)benzamide], the IC50 against PARP is not above 31.6 nM. For the same compound, in the experiment on Jurkat cell line, the PF50 entry was “≦0.9”. Besides, the Kd in experiment [1] is not above 10 nM.

On PARP, `CC1Oc2ccc(CN3CCN(c4ccc(C(=O)NCC5CC5)cn4)CC3)cc2NC1=O` (stereo not drawn) [Compound 234, N-(Cyclopropylmethyl)-6-(4-((2-methyl-3-oxo-3,4-dihydro-2H-benzo[b][1,4]oxazin-6-yl)methyl)piperazin-1-yl)nicotinamide] gave an IC50 of 39.8 to 100 nM. Moreover, in the experiment on Jurkat cell line, the PF50 is 1.0-1.9. Further, in experiment [1], the Kd was not above 10 nM.

In turn, `CC(C)NC(=O)c1ccc(N2CCN(Cc3ccc4c(c3)NC(=O)C(C)O4)CC2)cc1` (stereo not drawn) [Compound 225, N-Isopropyl-4-(4-((2-methyl-3-oxo-3,4-dihydro-2H-benzo[b][1,4]oxazin-6-yl)methyl)piperazin-1-yl)benzamide] showed an IC50 against PARP not above 31.6 nM. Also, in the experiment on Jurkat cell line, the PF50 result was “≦0.9”. Also, the Kd in experiment [1] was not above 10 nM.

The compound `COc1cc(CN2CCN(c3ccc(C(=O)NC4CC4)cc3)CC2)cc2c1OC(C)C(=O)N2` (stereo not drawn) [Compound 163, N-Cyclopropyl-4-(4-((8-methoxy-2-methyl-3-oxo-3,4-dihydro-2H-benzo[b][1,4]oxazin-6-yl)methyl)piperazin-1-yl)benzamide] had an IC50 at PARP not above 31.6 nM. Further, in the experiment with Jurkat cell line, the PF50 result is listed as “≧10.0”. For the same compound, in experiment [1], the Kd is less than 31.6 nM.

Regarding `COC(=O)c1ccc(N2CCN(Cc3ccc4c(c3)NC(=O)C(C)O4)CC2)nc1` (stereo not drawn) [Compound 232, Methyl 6-(4-((2-methyl-3-oxo-3,4-dihydro-2H-benzo[b][1,4]oxazin-6-yl)methyl)piperazin-1-yl)nicotinate], the IC50 on PARP was 39.8 to 100 nM. The PF50 in the experiment on Jurkat cell line is 1.0-1.9. Besides, the Kd in experiment [1] is not above 10 nM.

In the case of `CNC(=O)c1ccc(N2CCN(Cc3cc4c(c(OC)c3)OC(C)C(=O)N4)CC2)cc1` (stereo not drawn) [Compound 161, 4-(4-((8-Methoxy-2-methyl-3-oxo-3,4-dihydro-2H-benzo[b][1,4]oxazin-6-yl)methyl)piperazin-1-yl)-N-methylbenzamide], at PARP, the IC50 was not above 31.6 nM. Further, the PF50 result with Jurkat cell line is recorded as “≧10.0”. For the same compound, in experiment [1], the Kd was less than 31.6 nM.

Take `CNC(=O)c1ccc(N2CCN(Cc3cc(C)c4c(c3)NC(=O)C(C)O4)CC2)cc1` (stereo not drawn) [Compound 257, 4-(4-((2,8-Dimethyl-3-oxo-3,4-dihydro-2H-benzo[b][1,4]oxazin-6-yl)methyl)piperazin-1-yl)-N-methylbenzamide]: the IC50 on PARP is not above 31.6 nM. Besides, the PF50 in the experiment on Jurkat cell line is 2.0-9.9. Further, the Kd in experiment [1] is not above 10 nM.

For `CC1Oc2c(F)cc(CN3CCN(c4ccc(C#N)cn4)CC3)cc2NC1=O` (stereo not drawn) [Compound 267, 6-(4-((8-fluoro-2-methyl-3-oxo-3,4-dihydro-2H-benzo[b][1,4]oxazin-6-yl)methyl)piperazin-1-yl)nicotinonitrile], on PARP, the IC50 is not above 31.6 nM. Besides, the PF50 with Jurkat cell line is 1.0-1.9. In experiment [1], the Kd was not above 10 nM.

Consider `CC1Oc2ccc(CN3CCN(c4ccc(C(F)(F)F)cc4)CC3)cc2NC1=O` (stereo not drawn) [Compound 222, 2-Methyl-6-((4-(4-(trifluoromethyl)phenyl)piperazin-1-yl)methyl)-2H-benzo[b][1,4]oxazin-3(4H)-one], for which the IC50 on PARP was not below 126 nM. For the same compound, in the experiment with Jurkat cell line, the PF50 is on record as 1.0-1.9. Further, the Kd in experiment [1] was 12.6 to 100 nM.

`CCNC(=O)c1ccc(N2CCN(Cc3ccc4c(c3)NC(=O)C(C)O4)CC2)cc1` (stereo not drawn) [Compound 224, N-Ethyl-4-(4-((2-methyl-3-oxo-3,4-dihydro-2H-benzo[b][1,4]oxazin-6-yl)methyl)piperazin-1-yl)benzamide] had an IC50 at PARP not above 31.6 nM. Further, in the experiment on Jurkat cell line, the PF50 is on record as 2.0-9.9. Further, in experiment [1], the Kd was not above 10 nM.

Compound `Cc1cc(CN2CCN(c3ccc(C(=O)NC4CC4)cc3)CC2)cc2c1OC(C)C(=O)N2` (stereo not drawn) [Compound 259, N-Cyclopropyl-4-(4-((2,8-dimethyl-3-oxo-3,4-dihydro-2H-benzo[b][1,4]oxazin-6-yl)methyl)piperazin-1-yl)benzamide] showed an IC50 on PARP not above 31.6 nM. For the same compound, in the experiment with Jurkat cell line, the PF50 entry was “≧10.0”. Also, in experiment [1], the Kd is not above 10 nM.

On to `CCC1Oc2ccc(CN3CCN(c4ccccc4O)CC3)cc2NC1=O` (stereo not drawn) [Compound 197, 2-Ethyl-6-((4-(2-hydroxyphenyl)piperazin-1-yl)methyl)-2H-benzo[b][1,4]oxazin-3(4H)-one], for which the IC50 against PARP is not below 126 nM. Further, the PF50 in the experiment with Jurkat cell line is 1.0-1.9. The Kd in experiment [1] is not above 10 nM.

Consider `CC1Oc2ccc(CN3CCN(c4ccc(Cl)cn4)CC3)cc2NC1=O` (stereo not drawn) [Compound 61, 6-((4-(5-Chloropyridin-2-yl)piperazin-1-yl)methyl)-2-methyl-2H-benzo[b][1,4]oxazin-3(4H)-one], for which, on PARP, the IC50 is 39.8 to 100 nM. The PF50 entry with Jurkat cell line is given as “≦0.9”. In addition, the Kd in experiment [1] is not above 10 nM.

With `COc1cc(CN2CCN(c3ccc(C(=O)NC(C)C)cc3)CC2)cc2c1OC(C)C(=O)N2` (stereo not drawn) [Compound 164, N-Isopropyl-4-(4-((8-methoxy-2-methyl-3-oxo-3,4-dihydro-2H-benzo[b][1,4]oxazin-6-yl)methyl)piperazin-1-yl)benzamide], the IC50 on PARP is not above 31.6 nM. Further, in the experiment with Jurkat cell line, the PF50 result is given as “≧10.0”. Besides, the Kd in experiment [1] is less than 31.6 nM.

At PARP, `CCNC(=O)c1ccc(N2CCN(Cc3cc(C)c4c(c3)NC(=O)C(C)O4)CC2)nc1` (stereo not drawn) [Compound 261, 6-(4-((2,8-Dimethyl-3-oxo-3,4-dihydro-2H-benzo[b][1,4]oxazin-6-yl)methyl)piperazin-1-yl)-N-ethylnicotinamide] gave an IC50 of 39.8 to 100 nM. Also, in the experiment with Jurkat cell line, the PF50 is given as 2.0-9.9. Also, the Kd in experiment [1] is not above 10 nM.

Take `Cc1cc(CN2CCN(c3ccc(C#N)cc3)CC2)cc2c1OC(C)C(=O)N2` (stereo not drawn) [Compound 253, 4-(4-((2,8-Dimethyl-3-oxo-3,4-dihydro-2H-benzo[b][1,4]oxazin-6-yl)methyl)piperazin-1-yl)benzonitrile]: the IC50 against PARP was not above 31.6 nM. In the experiment on Jurkat cell line, the PF50 is recorded as 2.0-9.9. The Kd in experiment [1] is not above 10 nM.

For `Cc1cc(CN2CCN(c3ccc(C#N)cn3)CC2)cc2c1OC(C)C(=O)N2` (stereo not drawn) [Compound 254, 6-(4-((2,8-Dimethyl-3-oxo-3,4-dihydro-2H-benzo[b][1,4]oxazin-6-yl)methyl)piperazin-1-yl)nicotinonitrile], the IC50 against PARP was not above 31.6 nM. Moreover, the PF50 with Jurkat cell line is given as 2.0-9.9. Also, the Kd in experiment [1] is 12.6 to 100 nM.
